Where a SMILES comes first, the peptide text is derived from it.
Experiment: Taste characteristics in a cola drink (9 items, similarity index vs cola drink containing 10% sucrose)
Format: in vivo, human
Details: non-carbonated cola drink, PSE 10%, vs cola drink with 10% sucrose; smaller = closer to sucrose; 8 panelists
Protocol: The following experiments were performed in the same way as that of Example 2. Instead of aqueous solution, the cola drink of each of derivatives 1 to 9 having a sweetness level equivalent to that of PSE 10% was prepared, and compared with the cola drink containing 10% sucrose. The evaluation method and so on were same as that of Example 2.
When carbon dioxide is blown in the cola drink, the carbonated cola drink is prepared, however, the taste of the cola drink can be compared more easily in that without carbon dioxide. Thus the sensory evaluation of non-carbonated cola drink was performed.
The composition of the cola drink employed was same as that of Example 1.
(§1) The similarity indexes were calculated as those of aqueous solutions. The smaller the similarity index becomes, the better the taste balances, and the closer the taste is to the taste characteristics (quality) of sucrose. The total taste becomes preferable. The similarity indexes of each derivatives are shown as follows. […]
The following experiments were conducted in the same way as that of Example 15. Instead of aqueous solution, the cola drink of each of derivatives 1 to 9 having a sweetness level equivalent to that of PSE 10% was prepared, and compared with the cola drink containing 10% sucrose. All of the evaluation method and so on were same as those of Example 15.
When carbon dioxide is blown in the cola drink, the carbonated cola drink is prepared, however, the taste of the cola drink can be compared more easily in that without carbon dioxide. Thus the non-carbonated cola drink was organoleptically evaluated.
The composition of the cola drink employed was same as that of Example 14.
as §1, with “(quality)of” for “(quality) of”, “each of the” for “each”

Molecule | Similarity index
CC1=CC(=O)[N-]S(=O)(=O)O1.[K+] [Acesulfame K, reference compound] | ~2.0

Experiment: Equations for calculating sweetness intensity and values calculated from them
Format: in vivo, human
Details: 20° C., pH 2.8
Description: For example, when preparing a solution having a intensity of sweetness equivalent to that of 10% sucrose, wherein 80% of the 10% of intensity of sweetness is from the sweetener component A and the residual 20% is from the sweetener component B, the sweetness ratio is A:B=8:2. When the sweetening magnification relative to sucrose varies depending on the composition and the concentration of the sweetener component is varied even if it is a same sweetener component (in this case, an exponential curve can be prepared and used for calculation), the objective weight of the sweetener component can be calculated. For example, if the equation for converting sweetness intensity (the exponential curve) component A is Y=aX^b, and the equation for converting sweetness intensity (the exponential curve)of component B is Y=cX^d, the weight ratio of the components A and B in the ratio A:B=8:2, can be determined using the following calculation, where Y is a concentration equivalent to that of sucrose (PSE %), and X is the sweetener component concentration (g/100 ml):
(§2) Equations for calculating sweetness intensity in the cola drink (pH 2.8, 20° C.) are as follows, wherein Y denotes the concentration equivalent to that of sucrose (g/100 ml) and X denotes the concentration of the sweetener (g/100 ml), respectively.
With regard to Acesulfame K, the magnification of sweetness intensity was determined according to the following equation for calculating sweetness intensity.
[Y: concentration equivalent to that of sucrose (g/100ml); X: concentration of Acesulfame K (g/100 ml)]
By using the equation for calculating sweetness intensity in the cola drink (refer to Example 4) and the equation for calculating sweetness intensity of Aspartame (refer to the monthly Journal “Food Chemical” August, page 35, 1997), the necessary amounts of those were calculated. In case of Aspartame, the values at 20° C., pH2.8 were used.
The equation for calculating sweetness intensity of derivative 1 in the aqueous solution is as follows.
Where, the calculation of the sweetness was made by using the equation for calculating sweetness intensity of derivative 4 Y=58775X^1.04. When Y=6.3%, X=0.00015 g/100 ml, When Y=5.1%, X=0.00012 g/100 ml.
as §2, with “Examples for equations” for “Equations”, “(pH2.8,” for “(pH 2.8,”, “follows, and another equations can be prepared in the same manner,” for “follows,”

Molecule | X, concentration of the sweetener when Y=0.5 | X, concentration of the sweetener when Y=9
COC(=O)[C@H](Cc1ccccc1)NC(=O)[C@@H](N)CC(=O)O [Aspartame, reference compound] (H-Asp-Phe-OMe) | 0.00072 g/100 ml | 0.04726 g/100 ml

Same assay, conditions: calculated; block ice of Example 12

Molecule | magnification of the sweetness intensity at PSE 5%
COC(=O)[C@H](Cc1ccccc1)NC(=O)[C@@H](N)CC(=O)O [Aspartame, reference compound] (H-Asp-Phe-OMe) | 130 times

Same assay, conditions: calculated; sweetener for tabletop use

Molecule | magnification of sweetness intensity at PSE 0.5%
OC[C@@H](O)[C@@H](O)CO [Erythritol, reference compound] | 0.75 times
COC(=O)[C@H](Cc1ccccc1)NC(=O)[C@@H](N)CC(=O)O [Aspartame, reference compound] (H-Asp-Phe-OMe) | 360 times

Same assay, conditions: cola drink, pH 2.8, 20° C.

Molecule | X, concentration of the sweetener when Y=2 | X, concentration of the sweetener when Y=5 | X, concentration of the sweetener when Y=8
COC(=O)[C@H](Cc1ccccc1)NC(=O)[C@@H](N)CC(=O)O [Aspartame, reference compound] (H-Asp-Phe-OMe) | 0.0053 g/100 ml | 0.0202 g/100 ml | 0.0398 g/100 ml

Experiment: not given
Details: reported in JP-A-8-503206 / JP-B-47-31031; cited from earlier work

Molecule | sweetness intensity, times that of sucrose by weight
COC(=O)[C@H](Cc1ccccc1)NC(=O)[C@H](CC(=O)O)NCCC(C)(C)C [Neotame] | 10000 times
COC(=O)[C@H](Cc1ccccc1)NC(=O)[C@@H](N)CC(=O)O [Aspartame, reference compound] (H-Asp-Phe-OMe) | 200 times

Same assay, conditions: values used for calculation in Example 5; cited from earlier work

Molecule | magnification used for the sweetness intensity of the another sweetener with a high intense sweetness
C=C1C[C@@]23CC[C@H]4[C@@](C)(CCC[C@@]4(C)C(=O)O[C@@H]4O[C@H](CO)[C@@H](O)[C@H](O)[C@H]4O)[C@@H]2CC[C@]1(O[C@@H]1O[C@H](CO)[C@@H](O)[C@H](O)[C@H]1O[C@@H]1O[C@H](CO)[C@@H](O)[C@H](O)[C@H]1O)C3 [Stevioside] | 140 times
Thaumatin | 850 times
O=S(=O)([O-])NC1CCCCC1.[Na+] [sodium cyclamate] | 30 times
O=C1NS(=O)(=O)c2ccccc21.[Na] [Sodium Saccharine] | 190 times
CC1(C)[C@@H](O[C@H]2O[C@H](C(=O)[O-])[C@@H](O)[C@H](O)[C@H]2O[C@@H]2O[C@H](C(=O)O)[C@@H](O)[C@H](O)[C@H]2O)CC[C@]2(C)[C@H]3C(=O)C=C4[C@@H]5C[C@@](C)(C(=O)[O-])CC[C@]5(C)CC[C@@]4(C)[C@]3(C)CC[C@@H]12.[Na+].[Na+] [disodium glycyrrhizinate] | 100 times
O=C1NS(=O)(=O)c2ccccc21 [Saccharine] | 190 times
OC[C@H]1O[C@H](O[C@]2(CCl)O[C@H](CCl)[C@@H](O)[C@@H]2O)[C@H](O)[C@@H](O)[C@H]1Cl [suclarose] | 400 times
C[C@@H](NC(=O)[C@@H](N)CC(=O)O)C(=O)NC1C(C)(C)SC1(C)C [Alitame] | 2000 times

Same assay, conditions: values used for calculation in Example 17; sucrose = 1; cited from earlier work

Molecule | magnification of sweetness intensity (numerical values in brackets)
OC[C@@H](O)[C@@H](O[C@@H]1O[C@H](CO)[C@H](O)[C@H](O)[C@H]1O)[C@H](O)[C@@H](O)CO [lactitol] | 0.35
OC[C@H]1O[C@H](OC[C@H]2OC(O)(CO)[C@@H](O)[C@@H]2O)[C@H](O)[C@@H](O)[C@@H]1O (stereo partly drawn) [paratinose] | 0.4
OC[C@@H](O)[C@@H](O)[C@H](O)[C@@H](O)CO [sorbitol] | 0.75
OC[C@@H](O)[C@H](O)[C@@H](O)CO [xylitol] | 1
OC[C@@H](O)[C@@H](O)CO [Erythritol, reference compound] | 0.75
O=C(CO)[C@@H](O)[C@H](O)[C@H](O)CO [fructose] | 1.4
OC[C@H]1O[C@H](O[C@H]2[C@H](O)[C@@H](O)[C@H](O)O[C@@H]2CO)[C@H](O)[C@@H](O)[C@@H]1O [malt sugar] | 0.3
OC[C@H]1O[C@@H](O[C@H]2[C@H](O)[C@@H](O)C(O)O[C@@H]2CO)[C@H](O)[C@@H](O)[C@H]1O (stereo partly drawn) [lactose] | 0.2
isomerized lactose | 0.6
O=C[C@H](O)[C@@H](O)[C@H](O)CO [D-xylose] | 0.4
OC[C@H]1O[C@H](O[C@H]2O[C@H](CO)[C@@H](O)[C@H](O)[C@H]2O)[C@H](O)[C@@H](O)[C@@H]1O [trehalose] | 0.45
OC[C@@H](O)[C@@H](O[C@H]1O[C@H](CO)[C@@H](O)[C@H](O)[C@H]1O)[C@H](O)[C@@H](O)CO [maltitol] | 0.75
paratinit | 0.45
OC[C@@H](O)[C@@H](O)[C@H](O)[C@H](O)CO [mannitol] | 0.6

From patent US20030059511A1, “Sweetener compositions and uses thereof” (AJINOMOTO CO., INC., priority 1999, published 2003)
